Test results as given in paper PMC6143478, “Lipophilic activated ester prodrug approach for drug delivery to the intestinal lymphatic system” (Journal of Controlled Release, 2018).

Legend:
[1] = Plasma pharmacokinetics following intravenous administration in rats; format: in vivo; conditions: i.v., dose equivalent to 2.5 mg/kg BEX, rat; in words
Method: The protocols for pharmacokinetic and biodistribution experiments in this study were reviewed and approved by the University of Nottingham Ethical Review Committee in accordance with the Animals [Scientific Procedures] Act 1986. Male Sprague Dawley rats (Charles River Laboratories, UK) weighing 350–380 g were used. The animals were housed in the Bio Support Unit, University of Nottingham. Continuous lymph collection was performed according to a protocol approved by the Institutional Animal Care and Use Committee at Rutgers, The State University of New Jersey. Male Sprague Dawley rats (Envigo, Inc., NJ, USA) weighing 300–350 g were used for the continuous lymph collection. […]
Jugular vein cannulation surgery procedures were conducted under general anaesthesia for blood sampling. […] Blood samples of 250 μL volume were collected from the cannula at pre-determined time points following administration. […]
The HPLC-UV system consisting of a separation module (Waters Alliance 2695) equipped with a UV detector (Waters 996) was used for analysis. […] BEX and its prodrugs were detected at 259 nm and RA and its prodrugs at 357 nm.
Assessment of statistical significance of differences between two groups was conducted by means of two-tailed unpaired t-test. Statistical significance among three or more groups was assessed by means of a one-way ANOVA followed by Tukey's multiple comparisons test. […]

[2] = Prodrug conversion assay in rat plasma; format: in vitro ADME
Method: The prodrugs were tested for their stability and conversion into their corresponding active drug using fasted state simulated intestinal fluid (FaSSIF) with added esterase enzyme activity (20 IU/mL), rat plasma, and postprandial rat lymph. The FaSSIF was prepared as previously described in the literature. The medium was pre-heated to 37 °C prior to the assay for 5 min. The experiment was initiated by spiking stock solutions of prodrugs to give a final concentration of 10 μM of the prodrugs in the medium. When the stability of the artificial emulsion-associated prodrugs was tested in plasma, the association of compounds with artificial emulsion was performed prior to stability experiments and the concentrations of the compounds in the associated emulsion were measured. The emulsion was then spiked to give a concentration of 10 μM of the prodrugs in plasma. The reaction mixtures were incubated at 37 °C and shaken at 200 rpm on a temperature-controlled orbital shaker (Thermo Scientific MaxQ4000, Waltham, MA, USA) for 4 h. Samples were withdrawn at pre-determined time points, and the reaction was terminated by addition of acetonitrile. The samples were then subjected to sample preparation and analysis as described below. The natural log percentage of the prodrug concentration was plotted against incubation time, and the slope (k) was obtained from the plot. Half-life of active drug release (t1/2) was calculated by the following equation: t1/2 = −0.693/k. All experiments were conducted in triplicate.

For `C=C(c1ccc(C(=O)OCC)cc1)c1cc2c(cc1C)C(C)(C)CCC2(C)C` [prodrug 2], the “conversion of prodrug to BEX in plasma in vivo” value [1] was “rapidly converted to BEX”, the “conversion of emulsion-associated form of prodrug in rat plasma” value ([2]; prodrug incorporated into Intralipid lipid particles, 10 μM, relative to free form) was “delayed conversion” and the half-life at 10 μM ([2]; rat, plasma, in vitro, 37 °C, free form, read-out: half-life of active drug release in rat plasma) was 20 min.
